Data as given in PubChem BioAssay (NCI).
Where “and” joins values, the source holds several entries; their conditions need not be identical. Equal values may be shown once.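 Tested at 5 concentrations; 48 h exposure; 96-well plates; endpoints linearly interpolated, else capped at highest concentration. GI50 = concentration required for 50% inhibition of growth. TGI: total growth inhibition.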

What was measured:
Test in all cases: DTP human tumour cell line panel, 48 h
RPMI-8226 leukemia = test system: RPMI-8226 leukemia
HOP-92 NSCLC = test system: HOP-92 NSCLC
SW-620 colon = test system: SW-620 colon
U251 CNS = test system: U251 CNS
NCI/ADR-RES ovarian = test system: NCI/ADR-RES ovarian
SK-MEL-2 melanoma = test system: SK-MEL-2 melanoma
MALME-3M melanoma = test system: MALME-3M melanoma
T-47D breast = test system: T-47D breast
OVCAR-8 ovarian = test system: OVCAR-8 ovarian
786-0 renal = test system: 786-0 renal

| SMILES | GI50 (RPMI-8226 leukemia) [µM] | TGI (RPMI-8226 leukemia) [µM] | GI50 (HOP-92 NSCLC) | TGI (HOP-92 NSCLC) | GI50 (SW-620 colon) [µM] | TGI (SW-620 colon) | GI50 (U251 CNS) [µM] | TGI (U251 CNS) [µM] | GI50 (NCI/ADR-RES ovarian) [µM] | TGI (NCI/ADR-RES ovarian) | GI50 (SK-MEL-2 melanoma) [µM] | TGI (SK-MEL-2 melanoma) | GI50 (MALME-3M melanoma) [µM] | TGI (MALME-3M melanoma) [µM] | GI50 (T-47D breast) [µM] | TGI (T-47D breast) [µM] | GI50 (OVCAR-8 ovarian) [µM] | TGI (OVCAR-8 ovarian) | GI50 (786-0 renal) [µM] | TGI (786-0 renal) [µM] |
| --- | --- | --- | --- | --- | --- | --- | --- | --- | --- | --- | --- | --- | --- | --- | --- | --- | --- | --- | --- | --- |
| Nc1ncc(-c2ccc3ncnc(N4CCc5ccc(Cl)cc54)c3c2)cc1C(F)(F)F | 2.82 | > 100 | 0.137 µM | 6.41 µM | 3.55 | 37.3 µM | 2.65 | 16.6 | 2.26 | 91.1 µM | 5.12 | 23.5 µM | 0.919 | 6.22 | 0.557 | 10.9 | 2.15 | 22.6 µM | 1.6 | 12 |
| O=C(Nc1ccccc1)OC1OC(COC(=O)c2ccccc2)C(OC(=O)c2ccccc2)C1OS(=O)(=O)c1ccc([N+](=O)[O-])cc1 (stereo not given) | – | > 100 | – | > 100 µM | – | > 100 µM | – | > 100 | – | > 100 µM | – | > 100 µM | – | > 100 | – | > 100 | – | > 100 µM | – | > 100 |
| OC1CCCC2CCC[N-]C12.OC1CCCC2CCC[N-]C12.[O]=[V][OH] (stereo not given) | 2.54 | 25.8 | 22.9 µM | > 100 µM | 3.5 | 37.5 µM | 1.87 | 5.72 | 2.82 | 15.1 µM | 9.96 | 45 µM | 5.03 | > 100 | 0.825 | 26.6 | 2.98 | > 100 µM | 7.08 | 24.8 |
| O=C1Cc2cc(CCn3cncn3)c(Cl)cc2N1 | > 100 | > 100 | 3.02 µM | > 100 µM | 6.6 | > 100 µM | 14.5 | > 100 | 5.85 | > 100 µM | 12.4 | > 100 µM | > 100 | > 100 | > 100 | > 100 | 69.4 | > 100 µM | > 100 | > 100 |
| COc1ccc2c(O)c(/C=C3\N=Nc4ncccc43)oc2c1C[C@@H]1CCNC[C@H]1F | 0.266 | 0.984 | 4.7 µM | 9.21 µM | 0.34 | 1.12 µM | 0.299 | 1.2 | 0.915 | 4.31 µM | 1.93 | 4.04 µM | 1.89 | 5.23 | 2.32 | 11.8 | 0.277 | 1.6 µM | 0.362 | 1.59 |
| Cc1c2ccncc2c(C)c2c1sc1ccccc12 | – | 48 | – | 28.5 µM | – | 22.1 µM | – | 23.8 | – | 25 µM | – | 50.4 µM | – | 29.1 | – | > 100 | – | 25.1 µM | – | 17.5 |
| CN(C)Cc1ccc(NC(=O)c2cncc(C#Cc3cnc(N)c4ncccc34)c2)cc1F | 1.97 | 4.75 | 4.53 µM | 21.6 µM | 2.23 | 4 µM | 1.93 | 3.89 | 2.2 | 4.54 µM | 14 | 35.3 µM | 1.61 | 3.19 | 10.3 | 54.7 | 2.31 | 5.02 µM | 1.86 | 3.6 |
| CNC(=O)c1c(F)cccc1Nc1nc(Nc2cc3c(cc2OC)CCN3C(=O)CN(C)C)nc2[nH]ccc12 | 4.94 | 17.4 | 0.0309 µM | 1.6 µM | 1.14 | 3.42 µM | 2.39 | 6.61 | 9.69 | > 61.5 µM | 4.87 | 19.8 µM | 1.5 | 3.13 | 8.19 | 28.4 | 2.79 | 8.5 µM | 11.3 | 33.2 |
| O=C1NC2(CCCCC2)C(=O)N1CCN(CCCl)CCCl | > 25 | > 250 | > 25 µM and 22.9 µM | > 25 µM and 48.3 µM | > 25 | > 25 µM and 150 µM | > 25 | > 250 | > 25 | > 25 µM and 184 µM | 13.3 | 25 µM and > 141 µM | > 25 | > 194 | – | 25 | > 25 | > 25 µM and 173 µM | – | > 25 |
| Cc1nc2sc3c(N)ncnc3c2c(C)c1C | > 25 | > 25 | > 25 µM | > 25 µM | > 25 | > 25 µM | > 25 | > 25 | > 25 | > 25 µM | > 25 | > 25 µM | > 25 | > 25 | > 25 | > 25 | > 25 | > 25 µM | > 25 | > 25 |
| CC(=O)Nc1ccc(S(=O)(=O)N=S(C)C)cc1 | – | > 100 | – | > 100 µM | – | > 100 µM | – | > 100 | – | > 100 µM | – | > 100 µM | – | > 100 | – | > 100 | – | > 100 µM | – | > 100 |
| COc1ccc(C(=O)c2cc3c(N)c(C(=O)Nc4cccc(Br)c4C)sc3nc2C)cc1 | 0.037 | – | < 0.0445 µM | 1.67 µM | 0.046 | > 100 µM | 0.0518 | > 100 | 0.0402 | > 100 µM | 1.54 | > 100 µM | 0.0542 | > 100 | 50.4 | > 100 | 0.205 | > 100 µM | 0.0616 | > 100 |
| C#CC1(O)C(COP(=O)(O)OCC2OC(n3cc(F)c(=O)[nH]c3=O)CC2O)OC(n2ccc(N)nc2=O)C1O (stereo not given) | < 0.01 | 0.119 | 0.196 µM | > 46.4 µM | < 0.01 | > 100 µM | < 0.0273 | > 100 | < 0.0115 | 16 µM | 0.0552 | 5.78 µM | < 0.0118 | 0.444 | < 0.0238 | – | < 0.01 | – | < 0.01 | > 100 |
